# What was measured:
# [1] = Crystallization by heat-cool DSC; format: physicochemical; details: Cycle 2: 30 to 180° C. at 10° C./min; 180 to −20° C. at 2° C./min; re-heat to 250° C. at 10° C./min
# Experimental: Polymorphic behavior of Compound 1 free form was investigated by two different heat-cool DSC cycles using free form Pattern E. A Tzero pan and a Tzero hermetic lid with a pin hole were used for this experiment. Cycle 1: 30° C. to 180° C. at 10° C./min; 180° C. to −20° C. at 20° C./min; reheat to 250° C. at 10° C./min. Cycle 2: 30° C. to 180° C. at 10° C./min; 180° C. to −20° C. at 2° C./min; reheat to 250° C. at 10° C./min.
# [2] = Dog Hepatocyte Stability Assay; format: in vitro ADME; details: beagle, cryopreserved hepatocytes
# Experimental: (§1) The metabolic stability of Compound 1 was evaluated using cryopreserved hepatocytes from mice, rats, dogs, cynomolgus monkeys, and humans.
# (§2) 50 μL of 1 mM intermediate solutions for each test compound was prepared by adding 5 μL of 10 mM stock solution to 45 μL of a 1:1 mixture of water and acetonitrile. A 2 μM working stocks for each test compound were prepared in incubation media, InvitroGRO™ KHB (Bio IVT, Westbury, NY, USA), by adding 2 μL of 1 mM intermediate stock to 998 μL of incubation media.
# (§3) To thaw the hepatocytes, InvitroGRO™ HT thawing medium (BioIVT, Westbury, NY, USA) was prewarmed to 37° C., and 48 mL of warmed thawing medium was transferred to a sterile 50 mL conical tube. The hepatocyte vial was removed from the liquid nitrogen Dewar, and gently thawed in a water bath at 37° C. for 1-2 minutes, then the contents of the vial were emptied into a conical tube with prewarmed InvitroGRO HT medium. 1 mL of prewarmed InvitroGRO HT medium was added to each emptied hepatocyte vial to resuspend any remaining cells, and the contents were pipetted into the hepatocyte suspension. The tube containing the hepatocyte suspension was centrifuged at 50*g for 5 minutes. The supernatant was removed carefully, and the remaining pellet was resuspended by adding 1 mL of incubation media, InvitroGRO KHB, and gently shaking until there were no clumps.
# (§4) Cell viability was determined using the trypan blue method. 25 μL of hepatocyte cell suspension was added to a trypan blue (TB) solution (containing 775 μL InvitroGRO KHB and 200 μL of Trypan Blue). Cell count was taken using a hemacytometer.
# (§5) For mouse hepatocytes, 200 μL of hepatocytes (0.8×10^6 cells/mL) were added to the wells of a 48 well plate (Catalog No. 92048, TPP Techno Plastic Products AG, Trasadingen, Switzerland) and pre-incubated for 30 minutes at 37° C. For rat, dog, monkey, […], 200 μL of hepatocytes (2×10^6 cells/mL) were added to the wells of a 48 well plate (Catalog No. 92048, TPP Techno Plastic Products AG, Trasadingen, Switzerland) and pre-incubated for 30 minutes at 37° C.
# (§6) For all species of hepatocytes, once the pre-incubation period was complete, 200 μL of 2 μM working stock of test compound was added to the wells of the plate, and the plate was vortexed on a Vibramax™ 100 (P/N 544-21200-00, Heidolph Instruments GmbH & Co. KG, Schwabach, Germany) at 500 rpm in a 37° C. CO2 incubator (Model No. 51026280, ThermoFisher Scientific, Waltham, MA, USA). At each time point of 0, 15, 30, 60, 90, and 120 minutes, 50 μL of incubation mixture was precipitated with 200 μL of acetonitrile containing internal standard.
# (§7) At the end of the experiment, the samples were centrifuged at 4000 rpm for 10 minutes. […]
# [3] = system: cryopreserved hepatocytes from beagle dogs; experiment: Dog Hepatocyte Stability Assay; format: in vitro ADME
# Experimental: as §1, §2, §3, §4, §5, §6, §7
compound,measurement,setting,value
"COc1cc(-c2cn(C)c(=O)c(C)c2C)cc(OC)c1CN1CC[C@H](N2CCN(c3ccc(N[C@H]4CCC(=O)NC4=O)cc3F)CC2)C(F)(F)C1 [Compound 1, (S)-3-((4-(4-((S)-1-(2,6-dimethoxy-4-(1,4,5-trimethyl-6-oxo-1,6-dihydropyridin-3-yl)benzyl)-3,3-difluoropiperidin-4-yl)piperazin-1-yl)-3-fluorophenyl)amino)-piperidine-2,6-dione]",Thermal events: Glass transition,[1],Glass transition: 135.7° C.; Delta Cp:
same,half-life at 1 µM,[2],> 2 h
same,hepatocyte CLint at 1 µM,[2]; read-out: CL int cells,1.49 µL/min/1e6 cells
same,CLh int in vivo,[3],11.48 mL/min/Kg body wt.
same,CLhb scaled well stirred,[3],8.6 mL/min/kg body wt.

# Reference: US20240245677A1, “SELECTED COMPOUNDS FOR TARGETED DEGRADATION OF BRD9” (C4 THERAPEUTICS, INC., priority 2021, published 2024)
